For orientation: EC50 means the concentration giving half of the maximal effect.

Results on 10 compounds are retold here after patent US20090076067A1, “PHARMACEUTICAL COMPOSITION COMPRISING AZARHODACYANINE COMPOUND AS ACTIVE INGREDIENT” (priority 2005, published 2009).

Data set [1] relates to Plasmodium berghei NK 65 strain. Put plainly: animal or person. The class given is in vivo. The settings on record: for Survival days (mean survival days, treatment group minus control group) / Recovery Rate (suppression): 4 days; for Recovery Rate (suppression): P. berghei infected ICR mice.
Data set [2] has as its system Trypanosoma cruzi (Tulahuen C2C4 strain). Put plainly: American trypanosoma protozoa proliferation inhibition screening test. In kind it is cell-based. The settings on record: for Selective toxicity: EC50 rat L6 cells / EC50 American trypanosoma protozoa; for EC50: Trypanosoma cruzi, read-out: EC50 Trypanosoma cruzi. Here is the method: In this experiment, amastigote and trypomastigote of Trypanosoma cruzi (Tulahuen C2C4 strain) infected to rat L6 cells were used. The medium used in the experiment was prepared as follows: to RPMI 1640 medium containing L6 cells, L-glutamine (200 mM) and fetal bovine serum was added to achieve concentration of 1% and 10%, respectively. The culture was conducted under CO2 concentration 5% and temperature 37° C.
Either the compound of the invention or a positive control (benznidazole) was dissolved into DMSO to prepare test solution having predefined concentration. To each well in a 96-well culture plate, medium containing 5×10^3 protozoa was added and precultured for 48 hours. After replacing the medium, either the test solution containing compound of the invention in predefined concentration or DMSO without compound was added. The test solution was duplicated.
The plate was cultured in an incubator for 96 hours, and the proliferation inhibition activity was examined. The activity was determined as follows. To each well, 50 μL CPRG/Nonidet was added, then left for 2 to 6 hours. Then the culture plate was mounted on an absorption microplate reader to determine absorption at 540 nm. The trypanosoma infection rate of the sample containing the test compound and that of the control sample was calculated.
Using the protozoa infection rate thus obtained, the proliferation inhibition rate was calculated according to the following equation to determine 50% proliferation inhibition concentration (EC50).
Proliferation inhibition rate(%)={1−(b−a)/(c−a)}×100
a: initial infection rate b: infection rate of the test compound solution c: infection rate of the control

Data set [3] has as its system Rat-derived L6 cells (rat skeletal myoblast cell). Description: Rat L6 cell proliferation inhibition test. The settings on record: Alamar Blue. In kind it is cell-based. In general terms: Resazurin is reduced to fluorescent resorufin, in cell work by metabolically active cells.
Setting [4] is: Plasmodium berghei, ip, 96 h, read-out: Recovery Rate (suppression).
The mark [5] stands for this setting: Tulahuen C2C4 strain in rat L6 cells, 96 hours, CPRG/Nonidet.
Where [6] appears, read: dose 25 mg/kg/d intraperitoneally.

Where two headings read alike, the source gives them in different places.

Consider `CCN1C(=O)/C(=C2\C=Cc3ccccc3N2C)S/C1=N\c1sc2cc(Cl)ccc2[n+]1C` [Compound A-2], for which the inhibition in vivo at 10 mg/kg/day in data set [1] (setting [4]) was found to be 54.6%. Also, the Selective toxicity in data set [2] worked out at 18. Besides, the EC50 in data set [2] (setting [5]) stood at 0.31 mg/L.
As for `CCN1C(=O)/C(=c2/s/c(=C3/C=CC=CN3C)c(=O)n2CC)S/C1=N\c1sc2cc(Cl)ccc2[n+]1C` [Compound B-2], in data set [1] (setting [4]), the inhibition in vivo at 10 mg/kg/day was 79.8%, the inhibition in vivo at 20 mg/kg/day turned out to be 97.4%, the inhibition in vivo at 25 mg/kg/day was determined as 97.1% and the inhibition in vivo at 40 mg/kg/day was 99.1%. Also, in data set [1] (setting [6]), the “Survival days (mean survival days, treatment group minus control group)” value was determined as 19.3 days.
Regarding `CCN1C(=O)/C(=c2/s/c(=C3/SCCN3C)c(=O)n2CC)S/C1=N\c1sc2cc(OC)ccc2[n+]1C` [Compound B-29], the “Recovery Rate (suppression)” value in data set [1] (setting [6]) came to 95.0%. In addition, the “EC50 cytotoxicity L6” value in data set [3] (Table 1, 72 hours) came out at 1.98 mg/L; in data set [3] (Table 2, 72 hours), 1.98 mg/L; in data set [3] (Table 3, 72 hours), 1.98 mg/L; in data set [3] (Table 4, 72 hours), 1.98 mg/L. Moreover, the “EC50 Trypanosoma cruzi” value in data set [2] (setting [5]) came out at 0.091 mg/L.
In the case of `CN1/C(=c2\s/c(=C\c3cccc[n+]3CCC(=O)O)n(CC3CO3)c2=O)Sc2ccccc21` (stereo not shown) [Compound S-3, reference compound], the inhibition in vivo at 5 mg/kg/day in data set [1] (setting [4]) stood at 29.8%. The “Survival days (mean survival days, treatment group minus control group)” value in data set [1] (dose 5.0 mg/kg/d intraperitoneally) was 0 days. For the same compound, the “EC50 cytotoxicity L6” value is over 90 mg/L in data set [3] (Table 2, 72 hours); over 90 mg/L in data set [3] (Table 3, 72 hours); over 90 mg/L in data set [3] (Table 4, 72 hours). The EC50 in data set [2] (TULAHUEN, L6, 96 h) is over 30 mg/L.
As to `CCN1C(=O)/C(=c2/s/c(=C3/SCCN3C)c(=O)n2CC)S/C1=N\c1sc2cc(F)ccc2[n+]1C` [Compound B-33], in data set [1] (setting [6]), the “Survival days (mean survival days, treatment group minus control group)” value turned out to be 8.7 days. In data set [1] (setting [6]), the “Recovery Rate (suppression)” value amounted to 70.5%. Also, the “EC50 cytotoxicity L6” value was found to be 9.83 mg/L in data set [3] (Table 1, 72 hours); 9.83 mg/L in data set [3] (Table 2, 72 hours); 9.83 mg/L in data set [3] (Table 3, 72 hours); 9.83 mg/L in data set [3] (Table 4, 72 hours). Moreover, the “EC50 Trypanosoma cruzi” value in data set [2] (setting [5]) stood at 0.66 mg/L.
With `CCN1C(=O)/C(=c2/s/c(=C3/SCCN3C)c(=O)n2CC)S/C1=N\c1sc2cc(Cl)ccc2[n+]1C` [Compound B-12], the inhibition in vivo at 25 mg/kg/day in data set [1] (setting [4]) turned out to be 88.4%. This compound came in with a Selective toxicity in data set [2] of 7. In addition, in data set [2] (setting [5]), the 50% effective concentration (EC50) was determined as 0.98 mg/L.
With `CCN1C(=O)/C(=c2/s/c(=C3/C=CC=CN3C)c(=O)n2CC)S/C1=N\c1sc2cc(OC)ccc2[n+]1C` [Compound B-28], the “Recovery Rate (suppression)” value in data set [1] (setting [6]) was 98.3%. Also, the “EC50 cytotoxicity L6” value turned out to be 5.01 mg/L in data set [3] (Table 1, 72 hours); 5.01 mg/L in data set [3] (Table 2, 72 hours); 5.01 mg/L in data set [3] (Table 3, 72 hours); 5.01 mg/L in data set [3] (Table 4, 72 hours). The “EC50 Trypanosoma cruzi” value in data set [2] (setting [5]) was 0.314 mg/L.
As for `CCn1c(=O)/c(=C2\SCCN2C)s/c1=C1\S/C(=N\c2sc3cc(Cl)ccc3[n+]2C)N(C(C)C)C1=O` [Compound B-37], in data set [1] (setting [4]), the inhibition in vivo at 25 mg/kg/day was 94.5%. Also, in data set [2], the Selective toxicity is listed as 3. In addition, the EC50 in data set [2] (setting [5]) is 0.479 mg/L.
On to `CCN1C(=O)/C(=C2\Sc3ccccc3N2C)S/C1=N\c1sc2cc(Cl)ccc2[n+]1C` [Compound A-1], for which, in data set [1] (setting [4]), the inhibition in vivo at 10 mg/kg/day was determined as 54.1% and the inhibition in vivo at 25 mg/kg/day worked out at 62.7%. Also, in data set [1] (setting [6]), the “Survival days (mean survival days, treatment group minus control group)” value was found to be 2.0 days.
For `CCN1C(=O)/C(=c2/s/c(=C3/C=CC=CN3C)c(=O)n2CC)S/C1=N\c1sc2ccccc2[n+]1C` [Compound B-30], the “Recovery Rate (suppression)” value in data set [1] (dose 10 mg/kg/d intraperitoneally) worked out at 70.8%; in data set [1] (dose 20 mg/kg/d intraperitoneally), 92.4%; in data set [1] (setting [6]), 96.4%; in data set [1] (dose 40 mg/kg/d intraperitoneally) it was 97.8%. In addition, the “Survival days (mean survival days, treatment group minus control group)” value in data set [1] (setting [6]) is 16.0 days. The “EC50 cytotoxicity L6” value in data set [3] (Table 1, 72 hours) turned out to be 7.46 mg/L; in data set [3] (Table 2, 72 hours) it was 7.46 mg/L; in data set [3] (Table 3, 72 hours), 7.46 mg/L; in data set [3] (Table 4, 72 hours) it was 7.46 mg/L. Besides, the “EC50 Trypanosoma cruzi” value in data set [2] (setting [5]) was 0.74 mg/L.
